Data on 18 compounds can be found in patent US11883381B2, “ASH1L inhibitors and methods of treatment therewith” (The Regents of the University of Michigan, priority 2016, dated 2024).

As usually defined, the IC50 is the concentration that inhibits the measured activity by half. A low value points to higher potency.

The structures appear in SMILES notation. A value given as a limit tells only on which side of the number the result lay.

For test [1], the target named is T1, ASH1L SET-BAH construct (amino acids 2069-2833) (Homo sapiens, UniProt Q9NR48).
T1 construct: ASH1L SET-BAH construct (amino acids 2069-2833) at 0.25 μM was incubated with 0.7 μM SAM; MOCR fusion (TEV-cleavable); made in house; host or cells: E. coli BL21(DE3) T1R
The experiment in a line: ASH1L histone methyltransferase assay (KMTase assay). To be noted: Table 6 section headings give the IC50 class; assay not given. Format: biochemical. As to the method:
ASH1L Histone Methyltransferase Assay (KMTase Assay)
The reactions were stopped by spotting 5 μL of the reaction mixture on P81 cellulose squares (Reaction Biology). The P81 squares were dried for 45 min and washed five times with 50 mM sodium bicarbonate (pH 9.0), 10 min per wash. The P81 squares were then dried for 1 h, added to 10 mL of Ultima Gold scintillation cocktail (PerkinElmer), and analyzed using a Beckman scintillation counter.

The target of the next test is T2, ASH1L (Homo sapiens, UniProt Q9NR48).
T2 construct: endogenous in cells; host or cells: HeLa
In words: ASH1L degradation in HeLa cells. The settings on record: 0.05-50 μM. Format: cell-based.

Test [2] relates to MLL fusion target genes (Hoxa cluster, Meis1) in MLL-AF9 cells. The experiment in a line: Quantitative RT-PCR of MLL fusion target genes, MLL-AF9 cells. The test is classed as cell-based, mouse. The settings on record: for Expression of MLL fusion target genes (Hoxa cluster, Meis1): MLL-AF9 cells, normalized to β-actin. As to the method:
(§1) Total RNA was extracted from cells using the RNeasy mini kit (QIAGEN), and then 100-2000 ng of total RNA was reverse transcribed using the High Capacity cDNA Reverse Transcription Kit (Applied Biosystems) according to the manufacturer's protocol. Real-time PCR was performed using a CFX96 Real-Time PCR Detection System (Biorad). TaqMan Gene Expression Master Mix and TaqMan Gene Expression Assays for mouse Gapdh (Mm99999915), mouse Ash1l (Mm00467322), mouse Hoxa7 (Mm00657963), mouse Hoxa9 (Mm00439364), mouse Hoxa10 (Mm00433966), mouse Meis1 (Mm00487664), and mouse B-actin (Mm00607939) were purchased from Thermo Fisher. Relative quantification of each gene transcript was carried out using the ΔΔCt method as described in the Biorad Real-Time PCR Applications Guide.

Test [3] concerns human acute leukemia cells with various MLL translocations. The experiment in a line: Cell proliferation in a panel of human acute leukemia cells. The test is classed as cell-based. The method, then:
(§2) MA9 (MLL-AF9 transformed), HM2 (Hoxa9/Meis1 transformed) murine bone marrow cells (BMC), MV4;11 and MOL13 human leukemia cells were plated at 1×10^5 cells/ml in 24-well plates, treated with 0.25% DMSO or compounds and cultured at 37° C. for 12 days. Every four days, the volume corresponding to 1×10^5 cells of DMSO-treated cells was spun down and resuspended in fresh media with fresh compound. At day 0 and each four day interval, 100 μl aliquots of the cell suspension were transferred to 96-well plates in quadruplicates. The quadruplicate samples were incubated for 4 days at 37° C., and then an MTT cell proliferation assay kit (Roche) was used to measure viable cells. Absorbance was read at 570 nm using a PHERAstar (BMG) microplate reader.

The test system of test [4] is MV4;11 cells (expressing MLL-AF4). The experiment in a line: Cell viability (MTT) assay, MV4;11 cells. The test is classed as cell-based, human. The settings on record: 4 days of treatment. As to the method:
as §2

For another test, the system named is MLL-AF9 cells. In words: Differentiation (cytospin/Wright-Giemsa staining), MLL-AF9 cells. Format: cell-based, mouse. The method, then: Cytospin/Wrigtht-Giemsa Staining
1×10^5 MA9 mouse BMCs treated with compounds were harvested and placed in a Shandon EZ Single Cytofunnel (Thermo Fisher). Samples were centrifuged at 600 rpm for 5 min. The slides were air dried before staining with a Hema-3 kit (Thermo Fisher).

Test [5] deals with HM-2 (Hoxa9/Meis1) negative control cell line. The experiment in a line: Differentiation, HM-2 control cell line. The test is classed as cell-based, murine. To be noted: negative control cell line HM-2.
Test [6] concerns Hoxa cluster, Meis1 genes in control cell line HM-2. In words: Quantitative RT-PCR of MLL fusion target genes, HM-2 control cell line. The settings on record: normalized to β-actin. The test is classed as cell-based, mouse. The method, then: as §1
Test [7] concerns MOLM13 cells expressing MLL-AF9. The experiment in a line: Cell viability (MTT) assay, MOLM13 cells. The test is classed as cell-based, human. The settings on record: 4 days of treatment. As to the method: as §2
The subject of test [8] is murine bone marrow cells transformed with MLL-AF9 (MA9). In words: Cell viability (MTT) assay, MLL-AF9 transformed murine bone marrow cells. Format: cell-based. To be noted: 8 days of treatment. The method, then:
as §2

Regarding `NC(=S)c1cccc(-c2cn(CC(CO)(C(F)F)C(F)F)c3cc(CO)ccc23)c1` [Compound 200], the IC50 in test [1] was below 20 µM.
Compound `NC(=S)c1cccc(-c2cn(CC(CF)CF)c3cc(NC(=O)c4cc[nH]c4)ccc23)c1` [Compound 137] showed an IC50 in test [1] below 20 µM.
Compound `NC(=S)c1cccc(-c2cn(CC(CO)(C(F)F)C(F)F)c3cc(C(O)CF)ccc23)c1` (stereo not drawn) [Compound 209] displayed an IC50 in test [1] below 20 µM.
On to `NC(=S)c1cccc(-c2cn(CC(CF)CF)c3cc(NC(=O)CCOCCOCCOCCOc4cccc5c4C(=O)N(C4CCC(=O)NC4=O)C5=O)ccc23)c1` (stereo not drawn) [Compound 301], for which, at ASH1L, the “Degradation of ASH1L” value is listed as “Degradation of ASH1L induced”. The compound also registered an IC50 in test [1] below 20 µM.
As to `NC(=O)NCc1ccc2c(-c3cccc(C(N)=S)c3)cn(CC(CF)CF)c2c1` [Compound 204], the concentration for half-maximal inhibition (IC50) in [1] is below 20 µM.
In the case of `NC(=S)c1cccc(-c2cn(CC(CF)CF)c3cc(CNC(=O)CC(F)(F)F)ccc23)c1` [Compound 206], the IC50 in [1] was below 20 µM.
For the compound `NC(=S)c1cccc(-c2cn(CCCC(F)(F)F)c3cc(-c4ccn[nH]4)ccc23)c1` [Compound 260], the “Expression of MLL fusion target genes (Hoxa9, Hoxa10 and Meis1)” value in [2] (MLL-AF9 transformed murine leukemia cells) is given as “downregulates expression”. In test [3], the Cell proliferation result was “inhibits cell proliferation”.
As to `NC(=S)c1cccc(-c2cn(C(C(F)(F)F)C(F)(F)F)c3cc(CO)ccc23)c1` [Compound 207], in [1], the concentration for half-maximal inhibition (IC50) is below 20 µM.
In [1], `NC(=S)c1ccc(O)c(-c2cccc3[nH]ncc23)c1` [Compound 35] returned an IC50 above 100 µM.
For `NC(=S)c1cccc(-c2cn(CC(CF)CF)c3cc(N)ccc23)c1` [Compound 126, 3-(6-amino-1-(3-fluoro-2-(fluoromethyl)propyl)-1H-indol-3-yl)benzothioamide], the “Inhibition of cell proliferation” value in test [4], in test [7] and in [8] was “Inhibition of cell proliferation” throughout. The figures for the Differentiation of cells result (with MLL-AF9 cells; in test [5]) were “induces differentiation” and “but not in negative control cell line HM-2”, respectively. Besides, the “Expression of MLL fusion target genes (Hoxa cluster, Meis1)” value in test [2] is recorded as “downregulates expression”; in test [6], “has no effect on expression”.
Compound `NC(=S)c1cccc(-c2cn(CCCC(F)(F)F)c3cc(CNCc4ccccc4)ccc23)c1` [Compound 120] displayed an IC50 in test [1] below 20 µM.
`NC(=S)c1cccc(-c2cccc3[nH]ccc23)c1` [Compound 34]: in test [1], the 50% inhibitory concentration (IC50) was above 100 µM.
Turning to `NC(=S)c1cccc(-c2c[nH]c3ccccc23)c1` [Compound 89], the half-inhibitory concentration (IC50) in [1] fell in the range of 20 to 100 µM.
With `NC(=S)c1cccc(-c2cn(CC(CF)CF)c3cc(C(O)CC(F)(F)F)ccc23)c1` (stereo not drawn) [Compound 202], the IC50 in test [1] was below 20 µM.
As for `NC(=S)c1cccc(-c2c[nH]c3ccc(O)cc23)c1` [Compound 69], the “Expression of MLL fusion target genes (Hoxa cluster, Meis1)” value in test [2] and in [6] was “does not affect gene expression” each time.
`NC(=S)c1cccc(-c2cn(-c3ccc[nH]3)c3cc(CO)ccc23)c1` [Compound 220] yielded an IC50 in [1] below 20 µM.
On the same count and under the same terms, to `NC(=S)c1cccc(-c2cn(CC(CF)CF)c3cc(CNC(=O)c4cnc[nH]4)ccc23)c1` [Compound 203] belongs below 20 µM.
Regarding `CC(=O)Nc1ccc2c(-c3cccc(C(N)=S)c3)cn(CC(CF)CF)c2c1` [Compound 136], in [1], the concentration for half-maximal inhibition (IC50) is below 20 µM.
